Measurements from patent US11919885B1, “4-(4-bromophenyl)-2-alkyloxy-6-(2-oxo-2H-1-benzopyran-3-yl)pyridine-3-carbonitrile as antimicrobial compounds” (KING FAISAL UNIVERSITY, priority 2023, dated 2024).

How the values were obtained:
Assay type in all cases: cell-based
Pseudomonas aeruginosa = assay: Agar plate disc-diffusion, antibacterial activity (inhibition zone); conditions: nutrient agar, 37° C., 48 h, DMSO control zone subtracted; for inhibition zone, Pseudomonas aeruginosa, A: A = concentration of comp. = 10,000 μL; for inhibition zone, Pseudomonas aeruginosa, B: B = concentration of comp. = 30.000 μL; for inhibition zone, Pseudomonas aeruginosa, C: C = concentration of comp. = 50,000 μL
Experimental: (§1) The agar plate disc-diffusion method was applied. Sterilized filter papers (6 mm in diameter) were wetted with 10 μL of a solution of 4-(4-Bromophenyl)-2-ethoxy-6-(2-oxo-2H-1-benzopyran-3-yl)-4-phenylpyridine-3-carbonitrile (1) or 4-(4-Bromophenyl)-2-methoxy-6-(2-oxo-2H-1-benzopyran-3-yl)-4-phenylpyridine-3-carbonitrile (2) to be tested, containing […], and the discs were allowed to air dry. The discs were then placed onto the surface of agar plates (nutrient agar for bacteria and Sabouraud's dextrose agar for fungi) seeded with the test organism. Each plate contained 15 mL of the agar medium, previously seeded with 0.2 mL of the broth culture of each organism pregrown for 18 hours. The plates were incubated at 37° C. for 48 h, and 72 h for fungi. The inhibition zones were measured in mm. Discs impregnated with DMSO were used as a control, and its inhibition zone was subtracted from the tested compound actual inhibition zone.
(§2) The results of the antimicrobial testing can be observed in Tables 1 and 2, below, using ciprofloxacin as a reference.

Staphylococcus aureus = assay: as above; conditions: nutrient agar, 37° C., 48 h, DMSO control zone subtracted; for inhibition zone, Staphylococcus aureus, A: A = concentration of comp. = 10,000 μL; for inhibition zone, Staphylococcus aureus, B: B = concentration of comp. = 30.000 μL; for inhibition zone, Staphylococcus aureus, C: C = concentration of comp. = 50,000 μL
Experimental: as §1, §2

Bacillus cereus = assay: as above; conditions: nutrient agar, 37° C., 48 h, DMSO control zone subtracted; for inhibition zone, Bacillus Cereus, A: A = concentration of comp. = 10,000 μL; for inhibition zone, Bacillus Cereus, B: B = concentration of comp. = 30.000 μL; for inhibition zone, Bacillus Cereus, C: C = concentration of comp. = 50,000 μL
Experimental: as §1, §2

Escherichia coli = assay: as above; conditions: nutrient agar, 37° C., 48 h, DMSO control zone subtracted; for inhibition zone, Escherichia coli, A: A = concentration of comp. = 10,000 μL; for inhibition zone, Escherichia coli, B: B = concentration of comp. = 30.000 μL; for inhibition zone, Escherichia coli, C: C = concentration of comp. = 50,000 μL
Experimental: as §1, §2

[1] = tested on: Chrysosporium keratinophilum; assay: Agar plate disc-diffusion, antifungal activity (inhibition zone); conditions: Sabouraud's dextrose agar, 37° C., 72 h, DMSO control zone subtracted; for inhibition zone, Chrysosporium keratinophilum, A: A = concentration of comp. = 10,000 μL; for inhibition zone, Chrysosporium keratinophilum, B: B = concentration of comp. = 30.000 μL; for inhibition zone, Chrysosporium keratinophilum, C: C = concentration of comp. = 50,000 μL
Experimental: as §1, §2

Aspergillus flavus = assay: as above; conditions: Sabouraud's dextrose agar, 37° C., 72 h, DMSO control zone subtracted; for inhibition zone, Aspergillus flavus, A: A = concentration of comp. = 10,000 μL; for inhibition zone, Aspergillus flavus, B: B = concentration of comp. = 30.000 μL; for inhibition zone, Aspergillus flavus, C: C = concentration of comp. = 50,000 μL
Experimental: as §1, §2

For `CCOc1nc(-c2cc3ccccc3oc2=O)cc(-c2ccc(Br)cc2)c1C#N` [Compound 1, 4-(4-Bromophenyl)-2-ethoxy-6-(2-oxo-2H-1-benzopyran-3-yl)pyridine-3-carbonitrile], the “inhibition zone, Pseudomonas aeruginosa, A” value (Pseudomonas aeruginosa) was 25 mm, the “inhibition zone, Pseudomonas aeruginosa, B” value (Pseudomonas aeruginosa) was 30 mm and the “inhibition zone, Pseudomonas aeruginosa, C” value (Pseudomonas aeruginosa) was 39 mm. For the same compound, the “inhibition zone, Staphylococcus aureus, A” value (Staphylococcus aureus) was 20 mm, the “inhibition zone, Staphylococcus aureus, B” value (Staphylococcus aureus) was 25 mm and the “inhibition zone, Staphylococcus aureus, C” value (Staphylococcus aureus) was 35 mm. The “inhibition zone, Bacillus Cereus, A” value (Bacillus cereus) was 30 mm, the “inhibition zone, Bacillus Cereus, B” value (Bacillus cereus) was 34 mm and the “inhibition zone, Bacillus Cereus, C” value (Bacillus cereus) was 40 mm. The “inhibition zone, Escherichia coli, A” value (Escherichia coli) was 30 mm, the “inhibition zone, Escherichia coli, B” value (Escherichia coli) was 40 mm and the “inhibition zone, Escherichia coli, C” value (Escherichia coli) was 50 mm. For the same compound, the “inhibition zone, Chrysosporium keratinophilum, A” value [1] was 24 mm, the “inhibition zone, Chrysosporium keratinophilum, B” value [1] was 29 mm and the “inhibition zone, Chrysosporium keratinophilum, C” value [1] was 42 mm. For the same compound, the “inhibition zone, Aspergillus flavus, A” value (Aspergillus flavus) was 28 mm, the “inhibition zone, Aspergillus flavus, B” value (Aspergillus flavus) was 30 mm and the “inhibition zone, Aspergillus flavus, C” value (Aspergillus flavus) was 41 mm.
`COc1nc(-c2cc3ccccc3oc2=O)cc(-c2ccc(Br)cc2)c1C#N` [Compound 2, 4-(4-Bromophenyl)-2-methoxy-6-(2-oxo-2H-1-benzopyran-3-yl)pyridine-3-carbonitrile] was tested, and the “inhibition zone, Pseudomonas aeruginosa, A” value (Pseudomonas aeruginosa) was 27 mm, the “inhibition zone, Pseudomonas aeruginosa, B” value (Pseudomonas aeruginosa) was 33 mm and the “inhibition zone, Pseudomonas aeruginosa, C” value (Pseudomonas aeruginosa) was 40 mm. The “inhibition zone, Staphylococcus aureus, A” value (Staphylococcus aureus) was 15 mm, the “inhibition zone, Staphylococcus aureus, B” value (Staphylococcus aureus) was 22 mm and the “inhibition zone, Staphylococcus aureus, C” value (Staphylococcus aureus) was 30 mm. For the same compound, the “inhibition zone, Bacillus Cereus, A” value (Bacillus cereus) was 25 mm, the “inhibition zone, Bacillus Cereus, B” value (Bacillus cereus) was 32 mm and the “inhibition zone, Bacillus Cereus, C” value (Bacillus cereus) was 37 mm. The “inhibition zone, Escherichia coli, A” value (Escherichia coli) was 29 mm, the “inhibition zone, Escherichia coli, B” value (Escherichia coli) was 37 mm and the “inhibition zone, Escherichia coli, C” value (Escherichia coli) was 48 mm. The “inhibition zone, Chrysosporium keratinophilum, A” value [1] was 25 mm, the “inhibition zone, Chrysosporium keratinophilum, B” value [1] was 28 mm and the “inhibition zone, Chrysosporium keratinophilum, C” value [1] was 40 mm. The “inhibition zone, Aspergillus flavus, A” value (Aspergillus flavus) was 20 mm, the “inhibition zone, Aspergillus flavus, B” value (Aspergillus flavus) was 21 mm and the “inhibition zone, Aspergillus flavus, C” value (Aspergillus flavus) was 31 mm.
In the case of `O=C(O)c1cn(C2CC2)c2cc(N3CCNCC3)c(F)cc2c1=O` [Cip., ciprofloxacin, reference compound], the “inhibition zone, Pseudomonas aeruginosa, A” value (Pseudomonas aeruginosa) was 29 mm, the “inhibition zone, Pseudomonas aeruginosa, B” value (Pseudomonas aeruginosa) was 30 mm and the “inhibition zone, Pseudomonas aeruginosa, C” value (Pseudomonas aeruginosa) was 53 mm. The “inhibition zone, Staphylococcus aureus, A” value (Staphylococcus aureus) was 43 mm, the “inhibition zone, Staphylococcus aureus, B” value (Staphylococcus aureus) was 44 mm and the “inhibition zone, Staphylococcus aureus, C” value (Staphylococcus aureus) was 53 mm. For the same compound, the “inhibition zone, Bacillus Cereus, A” value (Bacillus cereus) was 29 mm, the “inhibition zone, Bacillus Cereus, B” value (Bacillus cereus) was 30 mm and the “inhibition zone, Bacillus Cereus, C” value (Bacillus cereus) was 42 mm. For the same compound, the “inhibition zone, Escherichia coli, A” value (Escherichia coli) was 30 mm, the “inhibition zone, Escherichia coli, B” value (Escherichia coli) was 39 mm and the “inhibition zone, Escherichia coli, C” value (Escherichia coli) was 60 mm. For the same compound, the “inhibition zone, Chrysosporium keratinophilum, A” value [1] was 29 mm, the “inhibition zone, Chrysosporium keratinophilum, B” value [1] was 30 mm and the “inhibition zone, Chrysosporium keratinophilum, C” value [1] was 53 mm. For the same compound, the “inhibition zone, Aspergillus flavus, A” value (Aspergillus flavus) was 29 mm, the “inhibition zone, Aspergillus flavus, B” value (Aspergillus flavus) was 30 mm and the “inhibition zone, Aspergillus flavus, C” value (Aspergillus flavus) was 42 mm.
